In US6537545B1, “Use of corneal hardening agents in enzymeorthokeratology” (ISTA Pharmaceuticals, Inc., priority 1998, dated 2003):

Key:
cornea = assay: Corneal elasticity, recovery from indentation by spherical glass indentor (Example 7); assay type: in vivo, human
Description: A precision spherical glass indentor was used to contact the corneal surface of subjects treated with the methods of the present invention to measure changes in corneal elasticity. The method used involved the application of the indentor, in the form of a small spherical ball to gently deflect into a test cornea to establish an initial deflection value. Measurements were taken by using an interferometer to view the deflection. Following this application, the relaxation period was measured by observing the change in the impression made by the indentor.
The indentation range of movement was characterized using a precision linear variable differential transducer (LVDT) device that measured the linear travel of a stage carrying the indentor probe. The average travel distance of the probe was established at approximately 700 micrometers. The contact depth of the indentor probe was measured by evaluating the corneal surface immediately after indentation and measuring the local height values caused by the probe contact. This value was measured to range from 266 to 300 micrometers.
A digital timer was used to mark the beginning and ending times during observation. Changes in the impression were readily observed during this period. The final end point was considered to be when the local fringe disturbance was recovered blending with the undisturbed neighboring fringes. […] However, given the time scales involved, the value of this error is considered to be small.
The method of inducing corneal inflection involved first contacting the test corneal with the indentor. After the initial contact with the cornea was established, the probe was moved forward into the cornea to a predetermined distance. Seven hundred microns was used to achieve adequate deflection. Topography was taken immediately after the deflection to record the impression made in the cornea. Observations of the cornea were then made at one (1) minute intervals to note the change in the impression made. […] Another topography was done after five (5) minutes to record the final condition of the impression. […]

Dutch Belted rabbit eyes [1] = assay: GLP safety study, histopathology (Example 3); assay type: in vivo; details: rarely noted in both glyceraldehyde and saline treated groups; Study Day 40
Excerpt: On Study Day 40, after 32 days of drops, the animals were sacrificed and the eyes were harvested according to the methods described in Experiment 2. The eyes were fixed in half-strength Karnovsky's fixative as described in Experiment 2 and sent to a Board Certified Veterinary Pathologist for interpretation.

[2] = tested on: Dutch Belted rabbit corneas; assay: Histopathologic examination of harvested corneas (Example 1); assay type: in vivo; details: rabbits; eyes harvested Study Day 58
Description: The animals were sacrificed and their eyes were harvested on Study Day 58. The animals in the study were euthanised using an intravenous injection of pentobarbital (2 mg/kg). The eyes of the animals were enucleated immediately after sacrifice using Castro-Viejo scissors. The corneas of the eyes were then removed and placed on the end of a glass tube and cut in half. These samples were then snap frozen in liquid nitrogen. […] The corneas were then sectioned, stained with hematoxylin/eosin and the slides were sent to a Board-certified Veterinary Pathologist for interpretation.

Dutch Belted rabbit eyes [3] = assay: Histopathology of eyes after corneal scraping (Example 2); assay type: in vivo; details: one of the four glyceraldehyde treated eyes; presumably due to scraping
Description: The study animals were sacrificed on Study Day 74 with an intravenous injection of pentobarbital (2 mg/kg). Eyes from the study animals were enucleated immediately post-sacrifice and placed in labeled tubes containing approximately 5 mL of half-strength Kamovsky's fixative (2.5% glutaraldehyde, 2.5% paraformaldehyde, 2.5 mM CaCl2, 100 mM Na Cacodylate, pH 7.4) for approximately 1 hour. The eyes were removed and small windows (1×3 mm) were made in the cornea/iris to allow penetration of the fixative to the vitreous. The eyes were then placed in 25 mL of fresh fixative. The fixed eyes were then sent to Consolidated Veterinary Diagnostics, Inc. (West Sacramento, Calif.) where they underwent routine tissue processing, sectioning, and staining with hematoxylin/eosin. They were examined by a Board Certified Veterinary Pathologist.
The eyes which had undergone corneal scraping and a subsequent healing period were sent to Consolidated Veterinary Diagnostics for tissue processing and pathologic interpretation. In toto, 4 eyes from the glyceraldehyde treated group and 2 eyes from the BSS group were evaluated. […] This description would imply a response to injury (presumably the scraping).

[4] = tested on: Dutch Belted rabbit corneal epithelium; assay: Corneal scraping, rate of re-epithelialization (Example 2); assay type: in vivo; details: rabbits; scraping on Study Day 71 after 63 days of drops; examined 1, 2, 3 days post-scraping; vs BSS
Description: On Study Day 71 (following 63 days of drops), corneal scrapings were performed as follows. Photographs of the uninstrumented eyes were taken after fluorescein staining. Fluorescein staining was performed as described in Example 1. The examined animals were then placed under general anesthesia using ketamine/xylazine also as described in Example 1. Two (2) drops of proparacaine were instilled into both eyes of the examined animal as an anesthetic. The animal to be examined was then placed on an examination table with one eye gently proptosed. A 10×15 mm strip of epithelium from the central cornea was denuded with a sterile #11 scalpel blade (Feather Safety Razor Co., Ltd., Japan). The examined animal was then returned to the slit lamp, topical fluorescein was applied, and the eye was photographed. The animals were examined for reepithelialization at 1, 2, and 3 days post-scraping. Photographs were taken and the rate of re-epithelialization was determined and documented.

[5] = tested on: eyes of myopic human subjects; assay: Mild myopia study, group III: corrective lenses and 3% glyceraldehyde without hyaluronidase (Example 9); assay type: in vivo; details: no hyaluronidase; subject 011; three month follow-up point; baseline 20/20

`O=CC(O)CO` (stereo not shown) [glyceraldehyde] was tested, and the “time for cornea to recover from indentation” value (cornea; after about two weeks of glyceraldehyde solution drops) was 20 to 30 s, the “change in corneal elasticity after treatment” value (cornea; glyceraldehyde solution drops, from more rapid indentation recovery) was “more elastic” and the “histopathology: focal increase in cellularity of corneal stroma, reduplication of Descemet's membrane, relation to treatment” value (Dutch Belted rabbit eyes [1]) was “not associated with treatment with the drops”. For the same compound, the “histopathologic differences between corneas of control and treated groups” value [2] was “no appreciable differences”, the “pathologic finding in eyes after scraping and healing” value (Dutch Belted rabbit eyes [3]) was “superficial scar in the corneal stroma and disruption of Bowman's membrane” and the “healing rate of scraped corneas (re-epithelialization)” value [4] was “healed at a rate equivalent to those of the control”. For the same compound, the “UVA at follow-up after end of treatment” value [5] was 20/40.
